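Each compound was tested at five concentrations against cells in 96-well plates for 48 hours. The concentration for full growth arrest is given as TGI.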
Experiments:
Assay in all cases: growth of human tumour cells (NCI), 48 h
SF-268 CNS = tested on: SF-268 CNS
HOP-62 NSCLC = tested on: HOP-62 NSCLC
HCT-116 colon = tested on: HCT-116 colon
NCI-H226 lung = tested on: NCI-H226 lung
SK-MEL-2 melanoma = tested on: SK-MEL-2 melanoma
MDA-MB-231 breast = tested on: MDA-MB-231 breast
UACC-257 melanoma = tested on: UACC-257 melanoma
MDA-MB-435 = tested on: MDA-MB-435
T-47D breast = tested on: T-47D breast
K-562 leukemia = tested on: K-562 leukemia
OVCAR-5 ovarian = tested on: OVCAR-5 ovarian
M14 melanoma = tested on: M14 melanoma
SR leukemia = tested on: SR leukemia
SN12C renal = tested on: SN12C renal
BT-549 breast = tested on: BT-549 breast
EKVX NSCLC = tested on: EKVX NSCLC
IGROV1 ovarian = tested on: IGROV1 ovarian
MCF7 breast = tested on: MCF7 breast
COLO 205 colon = tested on: COLO 205 colon
RXF 393 renal = tested on: RXF 393 renal
KM12 colon = tested on: KM12 colon
HS 578T breast = tested on: HS 578T breast
NCI-H23 lung = tested on: NCI-H23 lung
NCI-H460 lung = tested on: NCI-H460 lung
OVCAR-8 ovarian = tested on: OVCAR-8 ovarian
SF-295 CNS = tested on: SF-295 CNS
MOLT-4 leukemia = tested on: MOLT-4 leukemia
SK-MEL-5 melanoma = tested on: SK-MEL-5 melanoma
HCT-15 colon = tested on: HCT-15 colon
PC-3 prostate = tested on: PC-3 prostate
A549 NSCLC = tested on: A549 NSCLC
SK-OV-3 ovarian = tested on: SK-OV-3 ovarian
SF-539 CNS = tested on: SF-539 CNS
RPMI-8226 leukemia = tested on: RPMI-8226 leukemia
UO-31 renal = tested on: UO-31 renal
TK-10 renal = tested on: TK-10 renal
MDA-N = tested on: MDA-N
HL-60(TB) leukemia = tested on: HL-60(TB) leukemia
786-0 renal = tested on: 786-0 renal
DU-145 prostate = tested on: DU-145 prostate
CCRF-CEM leukemia = tested on: CCRF-CEM leukemia
U251 CNS = tested on: U251 CNS
A498 renal = tested on: A498 renal
SNB-75 CNS = tested on: SNB-75 CNS
HT29 colon = tested on: HT29 colon
NCI/ADR-RES ovarian = tested on: NCI/ADR-RES ovarian
ACHN renal = tested on: ACHN renal
NCI-H522 lung = tested on: NCI-H522 lung
OVCAR-4 ovarian = tested on: OVCAR-4 ovarian
SNB-19 CNS = tested on: SNB-19 CNS
CAKI-1 renal = tested on: CAKI-1 renal
OVCAR-3 ovarian = tested on: OVCAR-3 ovarian
HCC-2998 colon = tested on: HCC-2998 colon
MALME-3M melanoma = tested on: MALME-3M melanoma
UACC-62 melanoma = tested on: UACC-62 melanoma
LOX IMVI melanoma = tested on: LOX IMVI melanoma
HOP-92 NSCLC = tested on: HOP-92 NSCLC
SK-MEL-28 melanoma = tested on: SK-MEL-28 melanoma

Cc1cc(N(CCC#N)CCC#N)ccc1/C(N=Nc1ccc(Cl)cc1)=N\NC(=O)c1ccccc1
TGI (SF-268 CNS): > 100 µM
TGI (HOP-62 NSCLC): > 100 µM
TGI (HCT-116 colon): > 100 µM
TGI (NCI-H226 lung): > 100 µM
TGI (SK-MEL-2 melanoma): > 100 µM
TGI (MDA-MB-231 breast): > 100 µM
TGI (UACC-257 melanoma): > 100 µM
TGI (MDA-MB-435): 76.8 µM
TGI (T-47D breast): 88.3 µM
TGI (K-562 leukemia): > 100 µM
TGI (OVCAR-5 ovarian): > 100 µM
TGI (M14 melanoma): > 100 µM
TGI (SR leukemia): > 100 µM
TGI (SN12C renal): > 100 µM
TGI (BT-549 breast): > 100 µM
TGI (EKVX NSCLC): > 100 µM
TGI (IGROV1 ovarian): > 100 µM
TGI (MCF7 breast): > 100 µM
TGI (COLO 205 colon): 94.1 µM
TGI (RXF 393 renal): > 100 µM
TGI (KM12 colon): > 100 µM
TGI (HS 578T breast): 55 µM
TGI (NCI-H23 lung): > 100 µM
TGI (NCI-H460 lung): > 100 µM
TGI (OVCAR-8 ovarian): > 100 µM
TGI (SF-295 CNS): 77.6 µM
TGI (MOLT-4 leukemia): > 100 µM
TGI (SK-MEL-5 melanoma): > 100 µM
TGI (HCT-15 colon): > 100 µM
TGI (PC-3 prostate): > 100 µM
TGI (A549 NSCLC): > 100 µM
TGI (SK-OV-3 ovarian): > 100 µM
TGI (SF-539 CNS): 50.8 µM
TGI (RPMI-8226 leukemia): > 100 µM
TGI (UO-31 renal): > 100 µM
TGI (TK-10 renal): > 100 µM
TGI (MDA-N): 74.2 µM
TGI (HL-60(TB) leukemia): > 100 µM
TGI (786-0 renal): > 100 µM
TGI (DU-145 prostate): > 100 µM
TGI (CCRF-CEM leukemia): > 100 µM
TGI (U251 CNS): > 100 µM
TGI (A498 renal): 58.5 µM
TGI (SNB-75 CNS): > 100 µM
TGI (HT29 colon): 47.6 µM
TGI (NCI/ADR-RES ovarian): > 100 µM
TGI (ACHN renal): > 100 µM
TGI (NCI-H522 lung): 48.1 µM
TGI (OVCAR-4 ovarian): > 100 µM
TGI (SNB-19 CNS): > 100 µM
TGI (CAKI-1 renal): > 100 µM
TGI (OVCAR-3 ovarian): > 100 µM
TGI (HCC-2998 colon): > 100 µM
TGI (MALME-3M melanoma): > 100 µM
TGI (UACC-62 melanoma): > 100 µM

Clc1ccc(/C=C/c2nc3ccccc3s2)cc1Cl
TGI (SF-268 CNS): > 100 µM
TGI (HOP-62 NSCLC): 55.8 µM
TGI (HCT-116 colon): 63.8 µM
TGI (MDA-MB-231 breast): > 100 µM
TGI (UACC-257 melanoma): > 100 µM
TGI (MDA-MB-435): > 100 µM
TGI (T-47D breast): 9.77 µM
TGI (K-562 leukemia): > 100 µM
TGI (OVCAR-5 ovarian): > 100 µM
TGI (M14 melanoma): > 100 µM
TGI (SR leukemia): > 100 µM
TGI (SN12C renal): > 100 µM
TGI (BT-549 breast): > 100 µM
TGI (EKVX NSCLC): > 100 µM
TGI (IGROV1 ovarian): > 100 µM
TGI (MCF7 breast): > 100 µM
TGI (COLO 205 colon): > 100 µM
TGI (LOX IMVI melanoma): 3.12 µM
TGI (KM12 colon): > 100 µM
TGI (HS 578T breast): 80.8 µM
TGI (NCI-H23 lung): > 100 µM
TGI (NCI-H460 lung): > 100 µM
TGI (OVCAR-8 ovarian): > 100 µM
TGI (SF-295 CNS): > 100 µM
TGI (MOLT-4 leukemia): > 100 µM
TGI (SK-MEL-5 melanoma): > 100 µM
TGI (HCT-15 colon): > 100 µM
TGI (PC-3 prostate): 3.66 µM
TGI (A549 NSCLC): > 100 µM
TGI (SK-OV-3 ovarian): > 100 µM
TGI (SF-539 CNS): > 100 µM
TGI (RPMI-8226 leukemia): > 100 µM
TGI (UO-31 renal): 56 µM
TGI (TK-10 renal): > 100 µM
TGI (MDA-N): > 100 µM
TGI (HL-60(TB) leukemia): > 100 µM
TGI (786-0 renal): 32.1 µM
TGI (DU-145 prostate): > 100 µM
TGI (CCRF-CEM leukemia): > 100 µM
TGI (HOP-92 NSCLC): 72.3 µM
TGI (U251 CNS): > 100 µM
TGI (SNB-75 CNS): 40.9 µM
TGI (HT29 colon): > 100 µM
TGI (NCI/ADR-RES ovarian): > 100 µM
TGI (ACHN renal): > 100 µM
TGI (NCI-H522 lung): > 100 µM
TGI (OVCAR-4 ovarian): 37.3 µM
TGI (SK-MEL-28 melanoma): > 100 µM
TGI (SNB-19 CNS): > 100 µM
TGI (CAKI-1 renal): 48.6 µM
TGI (OVCAR-3 ovarian): > 100 µM
TGI (HCC-2998 colon): > 100 µM
TGI (MALME-3M melanoma): > 100 µM
TGI (UACC-62 melanoma): > 100 µM

From PubChem BioAssay (NCI)
